Structures are written as SMILES.

For orientation: melting point means the temperature, or range, at which the solid turns liquid. On to `Cc1nc(N2C(=O)N(Cc3ccc(F)cc3)C[C@@H]2C)sc1C(N)=O` [Example 1.12, (S)-2-(3-(4-fluorobenzyl)-5-methyl-2-oxoimidazolidin-1-yl)-4-methylthiazole-5-carboxamide], for which the melting point is 197 to 198 °C. On to `Cc1nnc(-c2sc(N3CCN(Cc4ccc(F)cc4)C3=O)nc2C)[nH]1` [Example 3.1, 1-(4-fluorobenzyl)-3-[4-methyl-5-(5-methyl-4H-1,2,4-triazol-3-yl)thiazol-2-yl]imidazolidin-2-one], for which the melting point is 248 to 249 °C.

Compound `Cc1nc(N2CCN(CC3CC3)C2=O)sc1C(=O)NCc1ccncc1` [Example 12.13, 2-(3-(cyclopropylmethyl)-2-oxoimidazolidin-1-yl)-4-methyl-N-(pyridin-4-ylmethyl)thiazole-5-carboxamide] yielded a melting point greater than 200 °C.

In the case of `Cc1nc(N2CCN(CC3CC3)C2=O)sc1C(=O)NCc1ncccn1` [Example 12.11, 2-(3-(cyclopropylmethyl)-2-oxoimidazolidin-1-yl)-4-methyl-N-(pyrimidin-2-ylmethyl)thiazole-5-carboxamide], the melting point is 218 to 220 °C. For `Cc1cc(-c2sc(N3CCN(Cc4cccc(C(F)(F)F)c4)C3=O)nc2C)n[nH]1` [Example 6.1, 1-(4-methyl-5-(5-methyl-1H-pyrazol-3-yl)thiazol-2-yl)-3-(3-(trifluoromethyl)benzyl)imidazolidin-2-one], the melting point fell in the range of 163 to 164 °C. In the case of `Cc1nc(N2C[C@@H](C)N(Cc3ccc(F)cc3)C2=O)sc1C(=O)NCc1cncs1` [Example 2.8, (R)-2-(3-(4-fluorobenzyl)-4-methyl-2-oxoimidazolidin-1-yl)-4-methyl-N-(thiazol-5-ylmethyl)thiazole-5-carboxamide], the melting point was in the range of 66 to 69 °C. Compound `Cc1nc(N2C[C@@H](C)N(Cc3ccc(F)cc3)C2=O)sc1C(=O)NCc1ccccn1` [Example 2.5, (R)-2-(3-(4-fluorobenzyl)-4-methyl-2-oxoimidazolidin-1-yl)-4-methyl-N-(pyridin-2-ylmethyl)thiazole-5-carboxamide] came in with a melting point of 118 to 119 °C. In turn, `C=CCCN1CCN(c2nc(C)c(C(=O)NCc3cccnc3)s2)C1=O` [Example 2.4, 2-(3-(but-3-enyl)-2-oxoimidazolidin-1-yl)-4-methyl-N-(pyridin-3-ylmethyl)thiazole-5-carboxamide] came in with a melting point of 144 to 145 °C. In turn, `Cc1nc(N2C[C@@H](C)N(Cc3cc(F)cc(F)c3)C2=O)sc1C(=O)NCc1ccccn1` [Example 2.12, (R)-2-(3-(3,5-difluorobenzyl)-4-methyl-2-oxoimidazolidin-1-yl)-4-methyl-N-(pyridin-2-ylmethyl)thiazole-5-carboxamide] registered a melting point of 147 to 148 °C. `Cc1nc(N2CCN(CC3CC3)C2=O)sc1C(=O)NCc1ccncn1` [Example 12.10, 2-(3-(cyclopropylmethyl)-2-oxoimidazolidin-1-yl)-4-methyl-N-(pyrimidin-4-ylmethyl)thiazole-5-carboxamide] displayed a melting point of 188 to 191 °C. `Cc1nc(N2C[C@@H](C)N(Cc3ccc(C(F)(F)F)cc3)C2=O)sc1C(N)=O` [Example 1.16, (R)-4-methyl-2-(4-methyl-2-oxo-3-(4-(trifluoromethyl)benzyl)imidazolidin-1-yl)thiazole-5-carboxamide]: the melting point lay within 110 to 112 °C. Compound `Cc1nc(N2C(=O)N(Cc3ccc(F)cc3)C[C@@H]2C)sc1C(=O)NCc1cnn(C)c1` [Example 2.16, (S)-2-(3-(4-fluorobenzyl)-5-methyl-2-oxoimidazolidin-1-yl)-4-methyl-N-((1-methyl-1H-pyrazol-4-yl)methyl)thiazole-5-carboxamide] returned a melting point of 176 to 177 °C. `Cc1nc(N2CCN(CC(C)C)C2=O)sc1C(=O)NCc1ccn(C)n1` [Example 12.22, 2-(3-isobutyl-2-oxoimidazolidin-1-yl)-4-methyl-N-((1-methyl-1H-pyrazol-3-yl)methyl)thiazole-5-carboxamide] returned a melting point of 158 to 161 °C. For `Cc1cc(CNC(=O)c2sc(N3C(=O)N(Cc4ccc(F)cc4)C[C@@H]3C)nc2C)no1` [Example 2.17, (S)-2-(3-(4-fluorobenzyl)-5-methyl-2-oxoimidazolidin-1-yl)-4-methyl-N-((5-methylisoxazol-3-yl)methyl)thiazole-5-carboxamide] the value was 174 to 175 °C; for `Cc1nc(N2CCN(CC(C)C)C2=O)sc1C(N)=O` [Example 1.6, 2-(3-isobutyl-2-oxoimidazolidin-1-yl)-4-methylthiazole-5-carboxamide], 212 to 215 °C; for `Cc1nc(N2C[C@H](C)N(Cc3ccc(F)cc3)C2=O)sc1C(=O)NCc1ccc(F)c(F)c1` [Example 2.1, (S)-N-(3,4-difluorobenzyl)-2-(3-(4-fluorobenzyl)-4-methyl-2-oxoimidazolidin-1-yl)-4-methylthiazole-5-carboxamide], 62 to 65 °C.

In turn, `Cc1nc(-n2cnn(Cc3ccc(F)cc3)c2=O)sc1C(N)=O` [Example 1, 2-(1-(4-fluorobenzyl)-5-oxo-1H-1,2,4-triazol-4(5H)-yl)-4-methylthiazole-5-carboxamide] came in with a melting point of 232 to 233 °C. For `Cc1cc(CNC(=O)c2sc(N3C[C@@H](C)N(Cc4ccc(F)cc4)C3=O)nc2C)no1` [Example 2.11, (R)-2-(3-(4-fluorobenzyl)-4-methyl-2-oxoimidazolidin-1-yl)-4-methyl-N-((5-methylisoxazol-3-yl)methyl)thiazole-5-carboxamide] the value was 139 to 140 °C. In turn, `Cc1nc(N2CCN(Cc3ccc(Cl)cc3)C2=O)sc1C(N)=O` [Example 1.13, 2-(3-(4-chlorobenzyl)-2-oxoimidazolidin-1-yl)-4-methylthiazole-5-carboxamide] showed a melting point greater than 200 °C. `Cc1nc(N2C(=O)N(Cc3ccc(F)cc3)C[C@H]2C)sc1C(=O)NCc1ccccn1` [Example 2.18, (R)-2-(3-(4-fluorobenzyl)-5-methyl-2-oxoimidazolidin-1-yl)-4-methyl-N-(pyridin-2-ylmethyl)thiazole-5-carboxamide] gave a melting point of 55 to 57 °C. `Cc1nc(-n2cnn(CC3CC3)c2=O)sc1C(N)=O` [Example 1.1, 2-[1-(cyclopropylmethyl)-5-oxo-1H-1,2,4-triazol-4(5H)-yl]-4-methylthiazole-5-carboxamide] showed a melting point of 180 to 181 °C.

Regarding `Cc1nc(N2C[C@@H](C)N(Cc3ccc(C(F)(F)F)cc3)C2=O)sc1C(=O)NCc1ccccn1` [Example 2.20, (R)-4-methyl-2-(4-methyl-2-oxo-3-(4-(trifluoromethyl)benzyl)imidazolidin-1-yl)-N-(pyridin-2-ylmethyl)thiazole-5-carboxamide], the melting point was in the range of 136 to 137 °C. Consider `Cc1nc(N2CCN(Cc3ccc(OC(F)(F)F)cc3)C2=O)sc1C(N)=O` [Example 1.9, 4-methyl-2-(2-oxo-3-(4-(trifluoromethoxy)benzyl)imidazolidin-1-yl)thiazole-5-carboxamide], for which the melting point lay within 185 to 187 °C. In turn, `Cc1nc(-n2cnn(CC3CC3)c2=O)sc1C(=O)NCc1cc[nH]n1` [Example 14.1, N-((1H-pyrazol-3-yl)methyl)-2-(1-(cyclopropylmethyl)-5-oxo-1H-1,2,4-triazol-4(5H)-yl)-4-methylthiazole-5-carboxamide] registered a melting point of 167 to 168 °C. In the case of `Cc1nc(N2C(=O)N(Cc3ccc(F)cc3)C[C@H]2C)sc1C(=O)NCc1cncs1` [Example 2.19, (R)-2-(3-(4-fluorobenzyl)-5-methyl-2-oxoimidazolidin-1-yl)-4-methyl-N-(thiazol-5-ylmethyl)thiazole-5-carboxamide], the melting point was 70 to 73 °C. For the compound `Cc1nc(N2CCN(CC3CC3)C2=O)sc1C(=O)NCc1ncco1` [Example 12.15, 2-(3-(cyclopropylmethyl)-2-oxoimidazolidin-1-yl)-4-methyl-N-(oxazol-2-ylmethyl)thiazole-5-carboxamide], the melting point lay within 172 to 174 °C.

On to `Cc1ncc(CNC(=O)c2sc(N3CCN(CC4CC4)C3=O)nc2C)s1` [Example 12.14, 2-(3-(cyclopropylmethyl)-2-oxoimidazolidin-1-yl)-4-methyl-N-((2-methylthiazol-5-yl)methyl)thiazole-5-carboxamide], for which the melting point lay within 165 to 167 °C.

`Cc1nnc(-c2sc(N3CCN(Cc4ccc(C(F)(F)F)cc4)C3=O)nc2C)[nH]1` [Example 3, 1-(4-methyl-5-(5-methyl-4H-1,2,4-triazol-3-yl)thiazol-2-yl)-3-(4-(trifluoromethyl)benzyl)imidazolidin-2-one] displayed a melting point of 273 to 274 °C. For the compound `Cc1nc(N2CCN(Cc3ccc(F)cc3)C2=O)sc1C(=O)NCc1cocn1` [Example 12.16, 2-(3-(4-fluorobenzyl)-2-oxoimidazolidin-1-yl)-4-methyl-N-(oxazol-4-ylmethyl)thiazole-5-carboxamide], the melting point lay in the range of 188 to 191 °C. For `Cc1nc(N2CCN(CC3CC3)C2=O)sc1C(N)=O` [Example 1.5, 2-(3-(cyclopropylmethyl)-2-oxoimidazolidin-1-yl)-4-methylthiazole-5-carboxamide], the melting point fell in the range of 198 to 200 °C. The compound `Cc1nc(N2C[C@@H](C)N(Cc3cc(F)cc(F)c3)C2=O)sc1C(N)=O` [Example 1.14, (R)-2-(3-(3,5-difluorobenzyl)-4-methyl-2-oxoimidazolidin-1-yl)-4-methylthiazole-5-carboxamide] yielded a melting point of 212 to 213 °C. `Cc1cc(-c2sc(N3CCN(Cc4ccc(F)cc4)C3=O)nc2C)n[nH]1` [Example 6.2, 1-(4-fluorobenzyl)-3-(4-methyl-5-(5-methyl-1H-pyrazol-3-yl)thiazol-2-yl)imidazolidin-2-one]: the melting point was in the range of 218 to 221 °C. The result for `Cc1nc(N2CCN(Cc3ccc(C(F)(F)F)cc3)C2=O)sc1C(N)=O` [Example 1.2, 4-methyl-2-{2-oxo-3-[4-(trifluoromethyl)benzyl]imidazolidin-1-yl}thiazole-5-carboxamide] reads 216 to 217 °C; that for `Cc1nc(N2C[C@H](C)N(Cc3ccc(F)cc3)C2=O)sc1C(=O)NCc1cccnc1` [Example 2, (S)-2-(3-(4-Fluorobenzyl)-4-methyl-2-oxoimidazolidin-1-yl)-4-methyl-N-(pyridin-3-ylmethyl)thiazole-5-carboxamide], 67 to 70 °C.
